The text below walks through data of US20070282004A1, “Use of a Cyclopentenone Prostaglandin for Delaying for the Onset and/or Preventing the Continuation of Labour” (Imperial College Innovations Limited, priority 2003, published 2007).

The subject of assay [1] is NF-κB. Briefly: Western immunoblot of p65, p50, IκB in myometrial cell extracts. It counts as cell-based, human. Conditions: myometrial cells; for IL-1β-induced p65 nuclear translocation: treated 2 h. On the procedure:
Western immunoblots of nuclear or cytosolic protein extracts from (A) myometrial cells, (B) L− amnion cells, and (C) L+ amnion cells treated with 15dPGJ2 or vehicle for 2 h±IL-1β stimulation (15 min). Blots probed with antibodies against p65, p50 or IκBα.
Western immunoblots of nuclear or cytosolic protein extracts from myometrial cells treated with PGA1 or vehicle for 2 h followed by IL-1β stimulation (15 min). Blots probed with antibodies against p65 or IκBa.
Western immunoblots of cytosolic extracts from myometrial cells (A) treated with 15dPGJ2 for 2h±IL1b for 15 min; probed for IKK, and (B) treated with […] 15dPGJ2, […] MG132 or vehicle for 2 h, ±IL-1β for 15 min; probed for IκBα.
(A) NF-κB-DNA binding was measured by EMSA in nuclear protein extracts from myometrial cells pre-treated with vehicle, 15d-PGJ2 or PGA1 for 2 h, followed by stimulation with IL-1β (1 ng/ml) for 15 min. Antibodies against p50 and p65 were used for supershift analysis. (B) Myometrial cells were transiently transfected with a NF-κB-LUC reporter and a β-gal reporter plasmid, pre-treated with vehicle or PGA1 for 2 h, and stimulated with IL-1β (1 ng/ml) for 6 h. Luciferase activity was normalized for β-gal reporter readout. Values are presented as the mean±SEM obtained for each treatment done in triplicate. Western blot analysis of nuclear p65 and p50 expression in myometrial cells treated with (C) PGA1 or (D) 15d-PGJ2 for 2 h, followed by stimulation with IL-1β (1 ng/ml) for 15 min. (E) Western blot analysis of whole cell lysates from myometrial cells treated with 15d-PGJ2 or 9,10-dihydro-15d-PGJ2 for 2 h, followed by stimulation with IL-1β (1 ng/ml) for 15 min. Membranes were probed with antibodies against p65 and Ser 536-phosphorylated p65.
Myometrial tissue was collected at term from the upper margin of uterine incision at the time of lower segment caesarean section either prior to the onset of labour (L−) or […] (L+). L+ samples were collected by Dr Mark Johnson and Dr S Soorrana at Chelsea & Westminster Hospital. Myometrial tissue was dissected, rinsed in PBS, and digested in serum-free DMEM containing 15 mg/ml collagenase 1A (Sigma), 15 mg/ml collagenase X, and 50 mg/ml bovine serum albumin for 45 min at 37° C. The cell suspension was filtered through a cell strainer, centrifuged at 400 g for 5 min, and the pellet re-suspended and plated out in DMEM, 10% FCS (Helena BioScience), 1% L-glutainine, 1% penicillin-streptomycin. Cells were used between passage numbers 1-4.
Nuclear and cytosolic protein extracts were obtained from cultured amnion cells as described by Schreiber et al (1989). For nuclear/cytosolic fractionation, confluent cell monolayers were scraped and lysed using a buffer containing 10 mM HEPES, 10 mM KCl, 0.1 mM EDTA, 0.1 mM EGTA, 2 mM DTT, 1% (v/v) NP-40 and complete protease inhibitor tablets (CPIs, Roche), diluted to manufacturer's instructions. Cell lysates were incubated on ice for 10 min and NP-40 added to a final concentration of 1% (v/v). Lysates were vortexed for 10 secs and centrifuged for 30 secs at 4° C., 12000 g. The supernatants were retained as the cytosolic protein extracts. The pellets were resuspended in buffer containing 10 mM HEPES, 10 mM KCl, 0.1 mM EDTA, 0.1 mM EGTA, 2 mM DTT, 400 mM NaCl, 1% NP-40 (v/v) and CPIs. Samples were shaken vigorously for 15 min in an ice bath. The nuclear protein extracts were obtained in the supernatant following a 5 min centrifugation at 4° C., 12000 g.
Protein samples (20-70 μg) were mixed with Laemmli sample buffer (1:1) containing β-mercaptoethanol (5%), and boiled for 5 min. Proteins were then separated by SDS-PAGE (12-14% gels) and transferred onto PVDF membrane (Amersham Pharmacia Biotech). The membranes were blocked overnight in 5% non-fat milk prepared in PBS-T buffer, at 4° C. The blots were incubated with the primary antibody in 1% non-fat milk in PBS-T buffer for 1 h, and washed three times (10 min each) in PBS-T with vigorous shaking. […]

For assay [2], the target named is T1, PPAR-γ (Homo sapiens, UniProt P37231).
T1 sequence (P37231 1-505): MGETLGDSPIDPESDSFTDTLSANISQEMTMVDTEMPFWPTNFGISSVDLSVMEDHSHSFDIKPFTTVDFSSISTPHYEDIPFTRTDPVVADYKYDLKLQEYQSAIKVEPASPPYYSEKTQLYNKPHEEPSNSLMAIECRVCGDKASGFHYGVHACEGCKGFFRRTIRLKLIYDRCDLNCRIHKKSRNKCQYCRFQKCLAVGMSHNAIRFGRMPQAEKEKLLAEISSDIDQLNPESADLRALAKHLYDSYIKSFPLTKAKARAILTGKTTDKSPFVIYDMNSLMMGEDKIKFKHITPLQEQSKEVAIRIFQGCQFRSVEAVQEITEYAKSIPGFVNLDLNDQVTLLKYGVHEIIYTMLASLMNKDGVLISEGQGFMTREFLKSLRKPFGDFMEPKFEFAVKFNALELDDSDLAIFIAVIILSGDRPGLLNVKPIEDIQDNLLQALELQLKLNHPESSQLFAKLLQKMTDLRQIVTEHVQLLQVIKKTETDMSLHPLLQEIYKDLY
To be noted: as stated from the literature; cited from earlier work.

“Also recorded” adds a separate entry of the source.

Turning to `CCCCCC=CC=C1C(=O)C=C[C@@H]1CC=CCCCC(=O)O` [15d-PGJ2, 15-deoxy-Δ^12,14prostaglandin J2], in assay [1], the “IL-1β-induced IκBα degradation” value is given as “inhibition”, the “IL-1β-induced IκBβ degradation” value is on record as “inhibition”, the “IL-1β-induced p50 phosphorylation” value was “inhibition” and the IκBα phosphorylation result is reported as “inhibits”. Also, in assay [1] (2 h, IL-1β 15 min), the “Accumulation of phosphorylated IκBα” value is listed as “not detected”. In addition, the “IL-1β-induced p65 nuclear translocation” value in assay [1] (IL-1β 15 min) was “inhibited”. In assay [1] (IL-1β 15 min, listed as 15dPGJ2), the “IL-1β-induced p65 nuclear translocation” value is on record as “inhibition”. In addition, the “PPAR agonist / ligand activity” value in assay [2] is on record as “is a PPAR agonist”.

For `CCCCC[C@H](O)/C=C/[C@H]1C=CC(=O)[C@@H]1CCCCCCC(=O)O` [PGA1, prostaglandin A1], in assay [1], the “IL-1β-induced IκBα degradation” value was “inhibition”. In assay [1] (2 h, IL-1β 15 min, similar in amnion epithelial cells), the “Reproduction of the effects of 15d-PGJ2 on NF-κB (incl. Ser 536-phosphorylated p65)” value is “shares the effect of 15d-PGJ2”. Moreover, the “IL-1β-induced p65 nuclear translocation” value in assay [1] (IL-1β 15 min) is listed as “inhibition; also recorded: inhibited”. Further, the “PPAR agonist / ligand activity” value in assay [2] was “does not act as a PPAR ligand”.
